Some test systems named below: M14 melanoma; K-562 leukemia; SK-MEL-28 melanoma; OVCAR-8 ovarian; SF-295 CNS; SNB-19 CNS; CCRF-CEM leukemia; SW-620 colon; SF-268 CNS; HOP-62 NSCLC.
Experiment in all cases: growth of human tumour cells (NCI), 48 h

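These data come from cells grown in 96-well plates and exposed to compound for 48 hours at five concentrations. GI50 is the concentration that inhibits growth by half. Definition used: TGI = concentration required for complete inhibition of growth.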

The source of these data is PubChem BioAssay (NCI).

For `O=C(NN1C(=O)C(Cl)C1c1ccc([N+](=O)[O-])cc1)c1ccccc1O` (centres undefined), the TGI in the experiment on M14 melanoma, in the experiment with K-562 leukemia, with SK-MEL-28 melanoma, in the experiment with OVCAR-8 ovarian, in the experiment with SF-295 CNS and in the experiment with SNB-19 CNS was more than 100 µM throughout. The TGI in the experiment on CCRF-CEM leukemia, in the experiment on SW-620 colon, in the experiment on SF-268 CNS and in the experiment on HOP-62 NSCLC was more than 100 µM each time.

With `Cn1nc2ccc3nccc(NCCNCCCl)c3c2n1`, the TGI in the experiment on M14 melanoma, in the experiment with K-562 leukemia, in the experiment on SK-MEL-28 melanoma, with OVCAR-8 ovarian, in the experiment on SF-295 CNS and with SNB-19 CNS was more than 100 µM in each case. The TGI in the experiment with CCRF-CEM leukemia, in the experiment with SW-620 colon, in the experiment with SF-268 CNS and in the experiment with HOP-62 NSCLC was more than 100 µM throughout.

As for `CN(C)S(=O)(=O)c1cccc(-c2nc3sc4c(c3c(=O)[nH]2)CCCC4)c1`, the GI50 with M14 melanoma was more than 100 µM; in the experiment with K-562 leukemia, more than 100 µM; in the experiment on SK-MEL-28 melanoma it was more than 100 µM; in the experiment with OVCAR-8 ovarian, 1.52 µM; with SF-295 CNS it was 1.35 µM; with SNB-19 CNS, 2.91 µM. In addition, the GI50 in the experiment on SW-620 colon was 1.78 µM; in the experiment on SF-268 CNS, 3.24 µM; in the experiment with HOP-62 NSCLC, 3.73 µM. The TGI is more than 100 µM in the experiment on M14 melanoma; more than 100 µM in the experiment with K-562 leukemia; more than 100 µM in the experiment on SK-MEL-28 melanoma; more than 100 µM with OVCAR-8 ovarian; 4.01 µM in the experiment on SF-295 CNS; more than 100 µM with SNB-19 CNS. Besides, the TGI with CCRF-CEM leukemia, in the experiment on SW-620 colon, with SF-268 CNS and in the experiment on HOP-62 NSCLC was more than 100 µM throughout.
